According to US20140256551A1, “HERBICIDAL COMPOSITIONS COMPRISING ISOXABEN AND FLUFENACET” (Dow AgroSciences LLC, priority 2013, published 2014):

What was measured:
Format in all cases: in vivo
Conditions in all cases: 200 L/ha water, isoxaben 40, flufenacet 200, diflufenican 100 g ai/ha, observed mean
[1] = tested on: BRSNW (Brassica napus, winter oilseed rape); test: Trial 1: small plot field experiment in winter wheat, foliar applied, visual % control of BRSNW
Source text: (§1) Results in Tables 1 and 2 are for foliar applied compositions in small plot research experiments to evaluate the efficacy of the compositions in winter wheat. Application water volume was 200 liters per hectare (L/ha). Crop stage at time of application was 12-13. The values reported are means. […] Colby's equation was used to determine the herbicidal effects expected from the mixtures (Colby, S. R. Calculation of the synergistic and antagonistic response of herbicide combinations. Weeds 1967, 15, 20-22.). More specifically, the following equation was used to calculate the expected activity of mixtures containing two active ingredients, A and B:
(§2) A=observed efficacy of active ingredient A at the same concentration as used in the mixture;
(§3) B=observed efficacy of active ingredient B (or combination B) at the same concentration as used in the mixture.

[2] = tested on: GERDI (Geranium dissectum, cutleaf geranium); test: Trial 1: small plot field experiment in winter wheat, foliar applied, visual % control of GERDI
Source text: as §1, §2, §3

[3] = tested on: STEME (Stellaria media (L.) Vill., common chickweed); test: Trial 1: small plot field experiment in winter wheat, foliar applied, visual % control of STEME
Source text: as §1, §2, §3

[4] = tested on: BRSNW (Brassica napus, winter oilseed rape); test: Trial 2: small plot field experiment in winter wheat, foliar applied, visual % control of BRSNW
Source text: as §1, §2, §3

In the case of `CC(C)N(C(=O)COc1nnc(C(F)(F)F)s1)c1ccc(F)cc1` [flufenacet, N-(4-fluorophenyl)-N-(1-methylethyl)-2-[[5-(trifluoromethyl)-1,3,4-thiadiazol-2-yl]oxy]acetamide], the “VISUAL % CONTROL OF BRSNW 28 DAT, Ob” value [1] is reported as 0 d %, the “VISUAL % CONTROL OF GERDI 28 DAT, Ob” value [2] is reported as 0 d % and the “VISUAL % CONTROL OF STEME 28 DAT, Ob” value [3] is reported as 0 e %. The “VISUAL % CONTROL OF BRSNW 13 DAT, Ob” value [4] was 43 cd % and the “VISUAL % CONTROL OF BRSNW 25 DAT, Ob” value [4] was 55 b %.
In the case of `CCC(C)(CC)c1cc(NC(=O)c2c(OC)cccc2OC)on1` [isoxaben, N-[3-(1-ethyl-1-methylpropyl)isoxazol-5-yl]-2,6-dimethoxybenzamide], the “VISUAL % CONTROL OF BRSNW 28 DAT, Ob” value [1] is reported as 0 d %, the “VISUAL % CONTROL OF GERDI 28 DAT, Ob” value [2] is reported as 0 d % and the “VISUAL % CONTROL OF STEME 28 DAT, Ob” value [3] is reported as 0 e %. For the same compound, the “VISUAL % CONTROL OF BRSNW 13 DAT, Ob” value [4] was 22 de % and the “VISUAL % CONTROL OF BRSNW 25 DAT, Ob” value [4] was 23 cd %.
